Laboratory results taken from PMC12587574, “Mass balance, pharmacokinetics, metabolism, and excretion of radiolabeled acoziborole, a potential novel treatment for human African trypanosomiasis, following single microtracer oral dose to humans” (Antimicrobial Agents and Chemotherapy, 2025).
“And” between values parts separate entries of the source, which are not always exact repeats. Equal values may be shown once. Read-outs that look alike come from different tables or passages of the source.

Tests used:
[1] = Plasma pharmacokinetics of acoziborole and SCYX-3109 by LC-MS/MS, phase I mass balance study; format: in vivo, human
Description: This single-center, open-label, single group, non-randomized, single oral dose study was performed at Quotient Sciences Ltd (Ruddington, Nottingham, UK). Clinical trial authorization was obtained from the Medicines and Healthcare Products Regulatory Agency (UK). Approval for administration of [^14C]-acoziborole was obtained from an expert committee sponsored by the Department of Health and Social Care in the United Kingdom (Administration of Radioactive Substances Advisory Committee [ARSAC]), and from the ARSAC-accredited Quotient Sciences’ nuclear medicine practitioner. This study was approved by a local research ethics committee in the United Kingdom and was conducted in compliance with the Declaration of Helsinki and the International Conference on Harmonisation E6 Guideline for Good Clinical Practice. The study was registered in clinicaltrials.gov (NCT04270981) and in EudraCT (reference 2019-004059-35). Written informed consent was obtained from all participants before undertaking any study-related procedures.
Participants were admitted in the evening of the day before dosing (Day −1) and were dosed in the morning of Day 1, following an overnight fast from food and drink of a minimum of 9 h. They remained fasted until approximately 4 h post-dose, at which time lunch was provided. Participants remained resident in the clinic until up to 240 h after dosing (up to Day 11). […] However, due to the COVID-19 pandemic, instead of returning for the outpatient visits, participants were requested to perform home collection of feces for a 48-h period (i.e., Days 31–33, Days 59–61, Days 89–91, and Days 119–121). Collected samples were couriered to the clinical unit at the end of each collection period. A follow-up call took place 5–10 days after the final outpatient visit to ensure the well-being of participants.
(§1) Venous blood samples were collected via an indwelling cannula or by venepuncture. A 12 mL sample was taken into heparinized glass tube and chilled on ice immediately before IP administration and 3 mL samples were taken at 1, 4, 9, 12, 24, 48, 72, 96, 120, 144, 168, and 240 h and on Days 15, 31, 59, 89, and 119 after IP administration. The first 0.5 mL of blood withdrawn via cannula was discarded. One aliquot of heparinized whole blood (1 mL) per time point was stored at or below −20°C for total radioactivity analysis. The remaining blood was centrifuged, and the harvested plasma was stored at approximately −20°C for bioanalysis or transferred (exactly 1 mL) into polypropylene tubes pre-filled with 5 µL formic acid. One plasma sample (0.5 mL) was used for metabolite profiling while another (0.5 mL) was used for parent drug and SCYX-3109 metabolite analysis. The remaining plasma was used for total radioactivity analysis.
SGS Belgium (Wavre, Belgium) performed the analysis to determine acoziborole and SCYX-3109 concentrations, using validated bioanalytical assays with liquid chromatography with tandem mass spectrometry (LC-MS/MS) with a Supelco Ascentis Express C8, 2.7 µm, 50 × 2.1 mm I.D. separation column. In plasma, the lower limit of quantification (LLOQ) was 25 ng/mL for acoziborole and 10 ng/mL for SCYX-3109. In urine, the LLOQ was 10 ng/mL for both acoziborole and SCYX-3109.
PK parameters were calculated based on actual sampling times using standard non-compartmental analysis and WinNonlin version 8.1 software (Certara, Princeton, NJ, USA).
The SCYX-3109 to parent ratios were calculated based on Cmax and AUC0–∞.

[2] = Total radioactivity in blood and plasma by accelerator mass spectrometry, phase I mass balance study; format: in vivo, human; details: 960 mg single oral dose
Description: as §1
TNO (Leiden, the Netherlands) performed the analysis of total radioactivity and the metabolite profiling and identification. All blood, plasma, urine, and fecal homogenate samples were analyzed for total radioactivity by accelerator mass spectrometry (AMS). AMS analysis was performed on a 1 MV multi-element AMS, model 4110 Bo, high voltage engineering (software: AMS 155), using Australian National University (ANU) sucrose-8542 (C12H22O11) with a certified ^14C/^12C isotope ratio ([10]) as the system suitability test sample and [^14C]-paracetamol as an AMS quality check sample.
For each (diluted) sample, 5 µL blood, 5 µL plasma, 15 µL urine, or 30 mg fecal homogenate prepared in 1% CMC solution (1% CMC solution:feces ratio of 4:1) were transferred to tin foil cups. The samples were dried under a stream of nitrogen and subsequently placed in the elemental analyzer (EA, Vario Micro, Elementar, Germany), which acts as an autosampler and combustion device for the AMS. Single samples of blood, plasma, and urine were analyzed. Fecal homogenates were analyzed in triplicate, and the averaged value was reported. Total radioactivity in plasma and blood was expressed as ng equivalents (Eq) of acoziborole/mL. The LLOQ was 47.3 ngEq/mL in plasma (1.51 mBq/mL), 165.4 ngEq/mL in blood (5.28 mBq/mL), 33.8 ngEq/mL in urine (1.08 mBq/mL), and 87.1 ngEq/mL in feces (2.78 mBq/mL).
Blood-to-plasma ratio was calculated based on Cmax and AUC values. For total radioactivity excreted in urine, feces, and both combined, the following parameters were calculated: total amount of total radioactivity excreted over the time interval between t1 and t2 (Aet1−t2), Aet1−t2 expressed as a percentage of the radioactive dose administered (%Aet1−t2), CumAe, and Cum%Ae. For CumAe calculation, the recovery of total radioactivity during WinNonlin time intervals in which urine and feces were not collected was estimated using the area under the excretion rate-time curve from the end of the preceding collection interval to the start of the subsequent collection interval.

[3] = test system: MDCK-MDR1 cell monolayer; details: cited from earlier work
[4] = N = 6, mean ± SD, listed as [^14C]-acoziborole

With CC1(C)OB(O)c2cc(NC(=O)c3ccc(F)cc3C(F)(F)F)ccc21 [acoziborole] the “mean t1/2 ratio of acoziborole to total radioactivity in blood” value ([1]; 960 mg single oral dose) was 1.1, the “mean t1/2 ratio of acoziborole to total radioactivity in plasma” value ([1]; 960 mg single oral dose) was 1.0 and the “share of the radioactivity in plasma, based on AUC0–240h and AUC0–∞ ratios of acoziborole to total radioactivity” value ([1]; 960 mg single oral dose) was ~100%. The t1/2 in plasma ([1]; 960 mg single oral dose of acoziborole, N = 6, mean ± SD) was 272.1 ± 36.3 h, the “CL/F (apparent total body clearance)” value ([1]; 960 mg single oral dose, plasma, N = 6, mean ± SD) was 0.2 ± 0.0 L/h and the “time first detected in plasma after dosing” value ([1]; after 960 mg single oral [14C]-acoziborole) was 1 h. For the same molecule, the AUC(0-t) ([1]; human, plasma, po, 960 mg, 960 mg single oral dose of acoziborole, N = 6, mean ± SD, read-out: AUC0–240h in plasma) was 2520 µg·h/mL, the AUC(0-t) ([1]; human, plasma, po, 960 mg, 960 mg single oral dose of acoziborole, N = 6, mean ± SD, read-out: AUC0–t in plasma) was 5920 µg·h/mL and the Tmax ([1]; human, plasma, po, 960 mg, 960 mg single oral dose of acoziborole, N = 6, mean ± SD, read-out: tmax in plasma) was 52 ± 9.8 h. It also gave an AUC(0-inf) ([1]; human, plasma, 960 mg single oral dose of acoziborole, N = 6, mean ± SD, read-out: AUC0–∞ in plasma) of 6450 µg·h/mL, a half-life ([1]; male, human, plasma, po, 960 mg, 960 mg single oral dose of acoziborole, N = 6, mean ± SD, read-out: t1/2 in plasma (converted)) of 272 h and a Tmax ([1]; male, human, plasma, po, 960 mg, 960 mg single oral dose, N = 6, read-out: individual tmax values in plasma) of 48 to 72 h. It also gave a Tmax ([1]; male, human, plasma, po, 960 mg, 960 mg single oral dose, N = 6, read-out: median tmax in plasma) of 48 h, a Cmax ([1]; male, human, plasma, 960 mg single oral dose of acoziborole, healthy males, N = 6, mean ± SD) of 14200 ± 1980 ng/mL and a Vd/F ([1]; male, human, 960 mg single oral dose, plasma, N = 6, mean ± SD, read-out: Vz/F (apparent volume of distribution during the terminal phase)) of 59.1 ± 7.3 L. For the same molecule, the “mean whole blood to plasma total radioactivity ratios (Cmax and AUC0–240h), interpretation” value [2] was “no affinity for blood cells”, the “median tmax, total radioactivity in plasma” value ([2]; N = 6) was 48 h and the “AUC0–240h, total radioactivity, whole blood” value ([2]; N = 6, mean ± SD) was 2,250.737 ± 182.816 µg-eq*h/mL. The “AUC0–t, total radioactivity, plasma” value ([2]; N = 6, mean ± SD) was 5,403.286 ± 1,561.755 µg-eq*h/mL, the “AUC0–t, total radioactivity, whole blood” value ([2]; N = 6, mean ± SD) was 3,556.202 ± 3,236.208 µg-eq*h/mL and the “AUC0–∞, total radioactivity, plasma” value ([2]; N = 6, mean ± SD) was 5,785.324 ± 1,105.726 µg-eq*h/mL. For the same molecule, the “AUC0–∞, total radioactivity, whole blood” value ([2]; N = 6, mean ± SD) was 5,382.336 ± 2,473.408 µg-eq*h/mL, the “tmax, total radioactivity, plasma” value ([2]; N = 6, mean ± SD) was 56.0 ± 12.4 h and the “tmax, total radioactivity, whole blood” value ([2]; N = 6, mean ± SD) was 68.1 ± 9.9 h. The “AUC0–240h, total radioactivity, plasma” value [2, 4] was 2,371.786 ± 255.572 µg-eq*h/mL, the “t1/2, total radioactivity, plasma” value [2, 4] was 278.3 h and 278 h and 278.3 ± 47.4 h and the “t1/2, total radioactivity, whole blood” value [2, 4] was 239.2 h and 239.2 ± 65.7 h. For the same molecule, the “Cmax, total radioactivity, whole blood” value ([2]; healthy males, N = 6, mean ± SD) was 12.052 ± 1.129 µg-eq/mL, the “Cmax, total radioactivity, plasma” value ([2]; healthy males, N = 6, mean ± SD, listed as [^14C]-acoziborole) was 13.13 µg-eq/mL and 13.130 ± 1.776 µg-eq/mL and the “mean whole blood to plasma total radioactivity ratios (Cmax and AUC0–240h), interpretation” value ([2]; listed as [^14C]-acoziborole) was “equivalent distribution between blood cells and plasma”. For the same molecule, the apparent permeability [3] was 77.6 ×10⁻⁶ cm/s.
